Data taken from ChEMBL document CHEMBL1201862, “PubChem BioAssay data set” (2004).
One block for each compound: values may come before it. The source made the active and inactive calls.

Key:
Genome polyprotein = Genome polyprotein (dengue virus type 2, UniProt P29990); assay: Dengue-2 NS5 methyltransferase inhibitors, primary screen, biochemical, confirmation dose response (AID 588689); format: functional
[1] = biological target: DNA dC->dU-editing enzyme APOBEC-3A (Homo sapiens, UniProt P31941); assay: Dose Response confirmation of small molecule APOBEC3A DNA Deaminase Inhibitors via a fluorescence-based single-stranded DNA deaminase assay. [Related pubchem assays (depositor defined):AID493011, AID493024]; format: functional
[2] = biological target: DNA dC->dU-editing enzyme APOBEC-3G (Homo sapiens, UniProt Q9HC16); format: functional;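 also: Dose-response counterscreen measuring inhibition of APOBEC3G DNA deaminase activity, run while confirming APOBEC3A inhibitors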
[3] = biological target: T1, Short transient receptor potential channel 4 (Mus musculus, UniProt Q9QUQ5); assay: mouse TRPC4 channel inhibitors, dose response, cell-based, HEK293 TRPC4/mu-opioid, Fluo-4 calcium (AID 434942); format: functional;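 also: potency of inhibitors blocking the TRPC4 calcium response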
T1 sequence (Q9QUQ5 whole entry): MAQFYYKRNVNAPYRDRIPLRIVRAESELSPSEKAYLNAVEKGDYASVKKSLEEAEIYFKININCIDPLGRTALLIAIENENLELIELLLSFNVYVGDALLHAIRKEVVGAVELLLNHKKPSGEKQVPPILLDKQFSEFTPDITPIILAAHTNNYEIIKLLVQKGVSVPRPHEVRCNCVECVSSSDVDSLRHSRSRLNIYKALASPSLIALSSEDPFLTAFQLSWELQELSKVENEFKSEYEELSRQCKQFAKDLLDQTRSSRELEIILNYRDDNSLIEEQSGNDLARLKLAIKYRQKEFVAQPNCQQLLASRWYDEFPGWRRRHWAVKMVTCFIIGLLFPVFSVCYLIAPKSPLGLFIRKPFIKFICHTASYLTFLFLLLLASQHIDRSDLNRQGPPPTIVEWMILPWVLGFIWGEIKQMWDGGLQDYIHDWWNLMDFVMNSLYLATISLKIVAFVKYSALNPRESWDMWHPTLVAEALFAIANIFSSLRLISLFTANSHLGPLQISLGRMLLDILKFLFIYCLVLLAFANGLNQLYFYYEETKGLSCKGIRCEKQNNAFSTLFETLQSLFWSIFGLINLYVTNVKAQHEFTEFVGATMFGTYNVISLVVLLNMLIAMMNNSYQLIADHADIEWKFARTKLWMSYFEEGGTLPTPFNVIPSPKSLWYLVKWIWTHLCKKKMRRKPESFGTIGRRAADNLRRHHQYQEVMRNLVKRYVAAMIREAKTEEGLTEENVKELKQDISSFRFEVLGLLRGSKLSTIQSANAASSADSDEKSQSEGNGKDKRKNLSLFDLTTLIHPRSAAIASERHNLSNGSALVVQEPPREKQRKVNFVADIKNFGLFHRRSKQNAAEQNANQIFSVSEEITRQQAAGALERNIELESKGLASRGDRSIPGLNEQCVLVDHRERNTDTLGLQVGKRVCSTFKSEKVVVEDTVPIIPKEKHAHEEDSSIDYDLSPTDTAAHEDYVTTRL

Estrogen receptor = biological target: T2, Estrogen receptor (Homo sapiens, UniProt P03372);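 also: potency for inhibiting coactivator peptide recruitment to the receptor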
T2 sequence (P03372 whole entry): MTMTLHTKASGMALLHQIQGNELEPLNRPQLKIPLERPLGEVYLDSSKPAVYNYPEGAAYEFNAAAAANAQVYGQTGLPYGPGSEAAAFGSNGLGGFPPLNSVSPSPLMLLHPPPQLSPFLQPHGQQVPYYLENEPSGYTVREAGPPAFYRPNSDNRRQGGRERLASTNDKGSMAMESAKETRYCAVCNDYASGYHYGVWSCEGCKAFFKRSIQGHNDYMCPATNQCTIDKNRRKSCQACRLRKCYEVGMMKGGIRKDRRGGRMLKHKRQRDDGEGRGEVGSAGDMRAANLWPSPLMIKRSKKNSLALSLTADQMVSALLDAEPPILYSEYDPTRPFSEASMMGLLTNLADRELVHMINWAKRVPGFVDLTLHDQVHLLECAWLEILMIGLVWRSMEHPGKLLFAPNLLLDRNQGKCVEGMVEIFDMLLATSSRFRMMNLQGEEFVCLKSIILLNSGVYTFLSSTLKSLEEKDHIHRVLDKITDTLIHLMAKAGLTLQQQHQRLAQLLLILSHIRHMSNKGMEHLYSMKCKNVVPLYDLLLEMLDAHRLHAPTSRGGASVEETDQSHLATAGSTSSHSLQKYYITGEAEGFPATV

[4] = biological target: Peroxisome proliferator-activated receptor gamma/Nuclear receptor coactivator 2 (Homo sapiens, UniProt P37231); format: functional;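 also: agonist potency for raising coactivator recruitment to the receptor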
[5] = biological target: Peroxisome proliferator-activated receptor gamma/Nuclear receptor coactivator 3 (Homo sapiens, UniProt P37231); format: functional;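 also: agonist potency for raising coactivator recruitment to the receptor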
[6] = biological target: Peroxisome proliferator-activated receptor gamma/Nuclear receptor coactivator 1 (Homo sapiens, UniProt P37231); format: functional;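 also: agonist potency as compounds enhance coactivator SRC-1 recruitment to PPARgamma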
SUMO-activating enzyme = SUMO-activating enzyme (Homo sapiens, UniProt Q9UBT2); assay: SUMOylation inhibitor hit validation, confirmation, SUMOylation inhibitor project, biochemical, AlphaScreen (AID 2018); format: functional
Protein Tat = biological target: T3, Protein Tat (Human immunodeficiency virus type 1 group M subtype B (isolate HXB2)(HIV-1), UniProt P04608); format: functional;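 also: tat binding to TAR RNA read out by fluorescence polarization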
T3 sequence (P04608 whole entry): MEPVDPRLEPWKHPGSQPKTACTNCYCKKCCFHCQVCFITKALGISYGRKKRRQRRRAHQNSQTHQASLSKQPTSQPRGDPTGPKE

[7] = biological target: T4, Heat shock factor protein 1 (Mus musculus, UniProt P38532); assay: inhibition of MG132-induced HSE-luciferase signal, confirmation, cell-based, NIH3T3, luminescence, dose retest (AID 2382); format: functional;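 also: NIH3T3 fibroblasts with HSF1-driven luciferase reporter stressed by proteasome inhibitor MG132; luminescence from HSF1-driven luciferase expression after 8 hours of MG132 stress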
T4 sequence (P38532 whole entry): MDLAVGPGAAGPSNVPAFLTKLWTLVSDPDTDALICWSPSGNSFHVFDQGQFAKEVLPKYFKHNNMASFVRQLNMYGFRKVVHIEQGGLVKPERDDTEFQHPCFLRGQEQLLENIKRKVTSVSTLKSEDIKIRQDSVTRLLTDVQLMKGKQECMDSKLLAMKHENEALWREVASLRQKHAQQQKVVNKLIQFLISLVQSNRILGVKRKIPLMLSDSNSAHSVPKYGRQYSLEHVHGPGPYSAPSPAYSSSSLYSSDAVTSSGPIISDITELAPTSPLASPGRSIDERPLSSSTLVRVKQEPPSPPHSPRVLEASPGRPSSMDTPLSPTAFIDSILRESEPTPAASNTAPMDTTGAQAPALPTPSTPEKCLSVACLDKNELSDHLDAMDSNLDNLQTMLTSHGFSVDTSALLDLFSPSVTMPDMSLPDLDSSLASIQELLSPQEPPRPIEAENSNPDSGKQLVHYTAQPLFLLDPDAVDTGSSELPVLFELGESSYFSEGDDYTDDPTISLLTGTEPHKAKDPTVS

[8] = biological target: T4, Heat shock factor protein 1; assay: HSF1 potentiators in luciferase reporter cells, confirmation, cell-based, NIH3T3, luminescence, dose retest (AID 435004); format: functional;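 also: stress induced by proteasome inhibitor MG132 added 30 min after compound; luciferase reporter driven by HSF1 response element in NIH3T3 cells; actives raise luminescence as potentiators of the MG132 stress response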
[9] = Shn3 3'UTR reporter inhibitors, dose response, cell-based, Clone20 osteoblasts, firefly luciferase, cherry-picked (AID 624132); format: functional;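 also: firefly luciferase luminescence from reporter carrying the Shn3 3'UTR in osteoblasts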
[10] = inhibitors of PGC1a acetylation in cells, dose response, cell-based, cherry-picked samples (AID 720514); format: functional;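 also: potency may reflect raised or lowered acetylation signal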
[11] = control 3'UTR Renilla luciferase suppression, dose response, counter-screen for Shn3 inhibitor project, cell-based, Clone20-Shn3RL, cherry-picked (AID 624133); format: functional
[12] = HepG2 cell cytotoxicity, dose response, cytotoxicity control for Shn3 inhibitor project, CellTiter-Glo, cherry-picked (AID 624134); format: functional, cell-based
Cytochrome P450 2C9 = Cytochrome P450 2C9 (Homo sapiens, UniProt P11712)
Large T antigen = Large T antigen (Simian virus 40, UniProt P03070); format: functional, Betapolyomavirus macacae;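 also: Confirmatory-stage PubChem screen for compounds that inhibit SV40 T antigen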

Sequence of DNA dC->dU-editing enzyme APOBEC-3G (Q9HC16 whole entry): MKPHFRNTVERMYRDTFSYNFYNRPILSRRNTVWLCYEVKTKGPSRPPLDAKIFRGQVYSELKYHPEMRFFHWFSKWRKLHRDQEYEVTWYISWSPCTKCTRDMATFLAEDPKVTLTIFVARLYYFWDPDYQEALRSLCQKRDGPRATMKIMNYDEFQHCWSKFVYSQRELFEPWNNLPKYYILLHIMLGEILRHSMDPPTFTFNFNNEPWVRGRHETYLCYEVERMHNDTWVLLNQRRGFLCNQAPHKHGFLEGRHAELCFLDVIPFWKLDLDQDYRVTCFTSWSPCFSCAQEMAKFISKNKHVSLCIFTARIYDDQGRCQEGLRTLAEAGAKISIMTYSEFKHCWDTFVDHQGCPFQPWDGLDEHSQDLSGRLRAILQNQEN
Sequence of Peroxisome proliferator-activated receptor gamma/Nuclear receptor coactivator 2 (P37231 whole entry): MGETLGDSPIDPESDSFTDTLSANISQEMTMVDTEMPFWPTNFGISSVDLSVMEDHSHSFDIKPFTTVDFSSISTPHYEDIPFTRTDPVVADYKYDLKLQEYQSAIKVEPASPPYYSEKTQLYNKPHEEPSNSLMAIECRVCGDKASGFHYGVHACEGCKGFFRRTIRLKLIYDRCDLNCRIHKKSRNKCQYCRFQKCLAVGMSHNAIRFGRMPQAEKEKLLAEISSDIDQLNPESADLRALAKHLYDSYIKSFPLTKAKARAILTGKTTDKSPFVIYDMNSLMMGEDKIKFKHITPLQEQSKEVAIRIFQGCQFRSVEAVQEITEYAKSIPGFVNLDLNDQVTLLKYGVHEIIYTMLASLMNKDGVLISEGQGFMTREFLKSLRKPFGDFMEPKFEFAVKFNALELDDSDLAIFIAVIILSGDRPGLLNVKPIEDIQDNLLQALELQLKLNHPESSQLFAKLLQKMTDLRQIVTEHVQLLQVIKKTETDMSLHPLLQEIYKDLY
Sequence of Peroxisome proliferator-activated receptor gamma/Nuclear receptor coactivator 2 (Q15596 whole entry, further chain): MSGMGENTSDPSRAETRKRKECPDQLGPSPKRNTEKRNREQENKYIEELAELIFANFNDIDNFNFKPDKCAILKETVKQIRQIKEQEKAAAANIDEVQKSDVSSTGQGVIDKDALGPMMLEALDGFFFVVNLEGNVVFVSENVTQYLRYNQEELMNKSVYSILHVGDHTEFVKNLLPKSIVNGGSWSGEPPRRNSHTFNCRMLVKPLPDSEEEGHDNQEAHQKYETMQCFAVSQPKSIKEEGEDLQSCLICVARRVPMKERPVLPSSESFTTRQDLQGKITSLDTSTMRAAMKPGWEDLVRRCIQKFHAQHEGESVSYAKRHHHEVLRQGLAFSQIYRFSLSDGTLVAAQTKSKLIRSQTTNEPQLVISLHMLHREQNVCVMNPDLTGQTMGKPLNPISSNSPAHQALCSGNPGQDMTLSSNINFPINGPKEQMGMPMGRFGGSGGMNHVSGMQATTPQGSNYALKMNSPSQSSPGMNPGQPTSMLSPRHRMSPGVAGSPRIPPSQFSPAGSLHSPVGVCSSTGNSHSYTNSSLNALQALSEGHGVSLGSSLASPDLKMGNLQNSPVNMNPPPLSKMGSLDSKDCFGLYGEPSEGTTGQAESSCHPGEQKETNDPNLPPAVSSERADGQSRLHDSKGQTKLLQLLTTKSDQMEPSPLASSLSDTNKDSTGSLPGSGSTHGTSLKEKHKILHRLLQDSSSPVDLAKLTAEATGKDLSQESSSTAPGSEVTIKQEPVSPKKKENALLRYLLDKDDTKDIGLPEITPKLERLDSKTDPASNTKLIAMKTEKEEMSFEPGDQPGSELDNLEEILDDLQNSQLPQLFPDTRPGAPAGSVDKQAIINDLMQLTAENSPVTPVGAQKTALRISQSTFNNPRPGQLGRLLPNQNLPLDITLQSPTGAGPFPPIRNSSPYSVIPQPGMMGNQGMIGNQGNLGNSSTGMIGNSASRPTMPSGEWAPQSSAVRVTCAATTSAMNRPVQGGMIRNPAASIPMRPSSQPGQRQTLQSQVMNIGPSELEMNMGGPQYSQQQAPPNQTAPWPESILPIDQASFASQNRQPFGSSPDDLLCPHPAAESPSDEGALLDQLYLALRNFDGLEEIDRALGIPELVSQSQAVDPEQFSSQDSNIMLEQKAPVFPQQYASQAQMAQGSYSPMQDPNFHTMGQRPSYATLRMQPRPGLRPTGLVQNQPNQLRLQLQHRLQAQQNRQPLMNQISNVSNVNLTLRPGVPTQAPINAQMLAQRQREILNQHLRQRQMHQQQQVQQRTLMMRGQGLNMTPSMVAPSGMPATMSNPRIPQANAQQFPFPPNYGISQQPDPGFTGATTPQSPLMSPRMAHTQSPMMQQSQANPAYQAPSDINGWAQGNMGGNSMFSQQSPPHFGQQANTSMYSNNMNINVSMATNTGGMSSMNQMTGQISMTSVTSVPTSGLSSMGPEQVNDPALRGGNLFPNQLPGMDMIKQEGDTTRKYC
Sequence of Peroxisome proliferator-activated receptor gamma/Nuclear receptor coactivator 3 (P37231 whole entry): as the sequence (P37231 whole entry) above
Sequence of Peroxisome proliferator-activated receptor gamma/Nuclear receptor coactivator 3 (Q9Y6Q9 whole entry, further chain): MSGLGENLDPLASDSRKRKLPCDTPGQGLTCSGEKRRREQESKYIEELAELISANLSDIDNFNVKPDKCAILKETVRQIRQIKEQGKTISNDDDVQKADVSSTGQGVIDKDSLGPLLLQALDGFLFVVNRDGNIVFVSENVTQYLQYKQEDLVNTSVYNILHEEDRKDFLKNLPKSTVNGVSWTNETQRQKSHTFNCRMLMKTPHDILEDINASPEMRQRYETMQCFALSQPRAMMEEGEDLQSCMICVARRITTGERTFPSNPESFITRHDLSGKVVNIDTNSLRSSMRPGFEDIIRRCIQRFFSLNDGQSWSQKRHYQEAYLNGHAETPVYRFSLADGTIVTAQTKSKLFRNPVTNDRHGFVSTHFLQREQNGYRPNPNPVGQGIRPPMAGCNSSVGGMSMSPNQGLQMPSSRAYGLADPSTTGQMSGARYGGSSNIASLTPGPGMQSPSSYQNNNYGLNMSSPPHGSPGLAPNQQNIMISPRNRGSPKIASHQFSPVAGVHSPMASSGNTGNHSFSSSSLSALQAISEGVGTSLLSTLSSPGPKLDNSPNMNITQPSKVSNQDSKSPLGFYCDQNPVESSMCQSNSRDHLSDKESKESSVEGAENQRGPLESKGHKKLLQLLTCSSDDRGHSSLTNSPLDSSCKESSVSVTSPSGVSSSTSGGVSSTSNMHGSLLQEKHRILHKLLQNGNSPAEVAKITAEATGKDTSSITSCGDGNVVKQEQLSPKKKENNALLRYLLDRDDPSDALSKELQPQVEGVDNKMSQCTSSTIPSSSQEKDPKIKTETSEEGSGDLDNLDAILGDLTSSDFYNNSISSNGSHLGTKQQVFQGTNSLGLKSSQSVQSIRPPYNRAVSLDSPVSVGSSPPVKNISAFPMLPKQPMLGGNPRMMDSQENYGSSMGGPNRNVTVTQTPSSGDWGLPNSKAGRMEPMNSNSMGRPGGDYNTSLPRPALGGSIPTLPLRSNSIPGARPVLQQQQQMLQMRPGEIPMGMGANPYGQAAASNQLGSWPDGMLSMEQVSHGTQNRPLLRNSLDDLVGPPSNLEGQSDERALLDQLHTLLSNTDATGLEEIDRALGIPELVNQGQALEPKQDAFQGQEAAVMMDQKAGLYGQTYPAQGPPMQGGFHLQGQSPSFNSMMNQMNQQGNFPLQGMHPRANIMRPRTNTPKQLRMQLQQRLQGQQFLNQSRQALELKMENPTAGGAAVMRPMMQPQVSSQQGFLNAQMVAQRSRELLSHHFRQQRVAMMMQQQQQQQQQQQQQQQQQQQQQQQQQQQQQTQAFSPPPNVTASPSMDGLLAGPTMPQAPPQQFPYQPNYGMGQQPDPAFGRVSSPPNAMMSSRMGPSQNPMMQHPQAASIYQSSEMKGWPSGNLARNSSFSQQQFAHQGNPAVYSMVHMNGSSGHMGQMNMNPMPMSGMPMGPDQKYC
Sequence of DNA dC->dU-editing enzyme APOBEC-3A (P31941 whole entry): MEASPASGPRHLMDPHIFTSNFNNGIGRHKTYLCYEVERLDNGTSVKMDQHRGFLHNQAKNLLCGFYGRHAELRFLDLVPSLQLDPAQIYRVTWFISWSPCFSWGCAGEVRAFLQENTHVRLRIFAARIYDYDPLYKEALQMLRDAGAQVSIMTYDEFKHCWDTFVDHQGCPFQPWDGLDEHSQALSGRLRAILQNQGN
Sequence of Cytochrome P450 2C9 (P11712 whole entry): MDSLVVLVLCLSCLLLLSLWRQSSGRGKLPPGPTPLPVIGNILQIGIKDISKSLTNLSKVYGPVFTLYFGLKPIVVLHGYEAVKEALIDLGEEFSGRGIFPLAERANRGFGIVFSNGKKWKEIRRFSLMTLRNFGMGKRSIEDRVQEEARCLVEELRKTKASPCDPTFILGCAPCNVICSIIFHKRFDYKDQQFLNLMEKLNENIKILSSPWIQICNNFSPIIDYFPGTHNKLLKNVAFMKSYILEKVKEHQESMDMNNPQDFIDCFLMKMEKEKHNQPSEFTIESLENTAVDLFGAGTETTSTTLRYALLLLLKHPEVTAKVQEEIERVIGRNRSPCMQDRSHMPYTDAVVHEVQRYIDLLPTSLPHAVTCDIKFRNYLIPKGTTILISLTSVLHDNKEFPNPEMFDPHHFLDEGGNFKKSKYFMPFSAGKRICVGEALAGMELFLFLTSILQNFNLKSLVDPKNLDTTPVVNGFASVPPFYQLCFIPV

- IC50 (Genome polyprotein): 42.9 µM (active)
SMILES: CCn1c2ccccc2c2cc(NC(=O)c3ccccc3-c3ccccc3C(=O)O)ccc21

SMILES: NC(=O)C[N+]1(CC#CC(O)(c2ccccc2)c2ccccc2)CCCC1
- IC50 [1]: 2.74 µM (active)
- IC50 [2]: 2.59 µM (active)

SMILES: COCc1cc(C)nc(Sc2nc3c(c(=O)n(C)c(=O)n3C)n2C)c1C#N
- IC50 [1]: 7.99 µM (active)
- IC50 [2]: 8.47 µM (active)

- IC50 (Genome polyprotein): 37.4 µM (active)
SMILES: O=C(O)C1=CC[C@@H](c2ccc(Cl)cc2)N(S(=O)(=O)c2ccc(Cl)cc2)[C@H]1c1cccc(Cl)c1

- EC50 [3]: 5.31 µM (active)
SMILES: CSc1nsc(NC(=O)Cc2ccccc2)n1

- IC50 (Estrogen receptor): > 50 µM (not active)
SMILES: Cc1cc(C)c(NC(=O)CSc2nc3ccc(NC(=O)CSc4nnnn4Cc4ccccc4)cc3s2)c(C)c1

SMILES: COC(=O)C1=C(C)N(CC2CC2)C(NCc2cc(OC)c(OC)c(OC)c2)=N[C@H]1c1ccccc1
- IC50 [1]: 8.83 µM (active)
- IC50 [2]: 14 µM (active)

- IC50 (Estrogen receptor): > 50 µM (not active)
SMILES: CCOC(=O)CCC(=O)Nc1ccccc1C(N)=O

- EC50 [3]: 4.73 µM (active)
SMILES: COC(=O)c1c(NC(=O)CSc2nc[nH]n2)sc(C)c1C

- EC50 [4]: 32.6 µM (not active)
- EC50 [5]: 48.3 µM (not active)
- EC50 [6]: 55.3 µM (not active)
SMILES: COc1ccc(-c2c(C#N)c(C)nc3c2C(=O)c2ccccc2-3)cc1

SMILES: COC(=O)c1ccc2ccn(CC(=O)NC(C)C)c2c1
- IC50 [1]: 3.92 µM (active)
- IC50 [2]: 4.95 µM (active)

SMILES: Cc1ccc(C2CN(C)CC2C(=O)c2ccc(F)cc2)cc1 (stereo not given)
- EC50 [3]: 13.3 µM (active)

- EC50 [4]: 21.9 µM (not active)
- EC50 [5]: 37.1 µM (not active)
- EC50 [6]: 34.6 µM (not active)
SMILES: N#Cc1c(N)nc(SCC(=O)NC2CCCCC2)c(C#N)c1-c1ccc(Cl)cc1

- EC50 [4]: > 79.4 µM (not active)
- EC50 [5]: > 79.4 µM (not active)
- EC50 [6]: > 79.4 µM (not active)
SMILES: Cc1ccc(CNC(=O)COc2ccc(C(=O)c3ccc(F)cc3)cc2)cc1

SMILES: CSc1ccc(C(c2c(C(=O)O)[nH]c3ccccc23)c2c(C(=O)O)[nH]c3ccccc23)cc1
- IC50 (Genome polyprotein): 48.8 µM (active)

- IC50 (SUMO-activating enzyme): 28.8 µM (active)
SMILES: O=C(COC(=O)c1cc(NS(=O)(=O)c2cccs2)ccc1O)Nc1cc(Cl)ccc1Cl

- IC50 (Estrogen receptor): 19 µM (active)
SMILES: COc1ccccc1C(=O)Nc1nc(-c2cccs2)c(NC(C)=O)s1

- IC50 (Protein Tat): > 100 µM (active)
SMILES: CCOC(=O)/C=C1\SCC(=O)N1CC(=O)NC(C)c1ccc(F)cc1 (stereo not given)

- IC50 (Estrogen receptor): 26.3 µM (active)
SMILES: Fc1ccc(-c2nnc(-n3nnc4ccccc43)c3ccccc23)cc1

- EC50 [7]: 9.25 µM (active)
- IC50 (Estrogen receptor): 9.58 µM (active)
SMILES: N#Cc1c(NC(=O)CSc2ncccn2)oc(-c2ccccc2)c1-c1ccccc1

SMILES: Fc1ccc(/C=C2\CCCC3=C2Nc2ncnn2C3c2ccc(F)cc2)cc1 (stereo not given)
- EC50 [8]: 20.7 µM (active)
- AC50 [9]: 8.47 µM (active)
- AC50 [10]: 9.46 µM (active)
- AC50 [11]: 11.3 µM (active)
- AC50 [12]: 37.9 µM (active)

- EC50 [4]: 18 µM (not active)
- AC50 (Cytochrome P450 2C9): 25.1 µM (inconclusive)
- EC50 [5]: 33.3 µM (not active)
- EC50 [6]: 18.4 µM (not active)
SMILES: Cc1nn(-c2ccc(Cl)cc2)c2sc(C(=O)c3c(N)n(C)c(=O)n(C)c3=O)cc12

- IC50 (Protein Tat): > 100 µM (active)
- IC50 (Large T antigen): 34.6 µM (active)
SMILES: CCC(C)(C)n1nnnc1C(c1ccc2ncccc2c1)N1CCN(c2ccc(O)cc2)CC1 (stereo not given)

- IC50 (Genome polyprotein): 38.8 µM (active)
SMILES: Cc1ccc([C@H]2C(C(=O)O)=CC[C@@H](c3ccc(Cl)c(Cl)c3)N2S(=O)(=O)c2ccc(C)cc2)cc1

SMILES: CCN1C(=NCC2CC2)N[C@@H](c2ccccc2)C(C(=O)OC)=C1C
- IC50 [1]: 3.37 µM (active)
- IC50 [2]: 8.56 µM (active)
